Patent publication US11160750B2, “Composition and method for promoting hair growth” (ZivMas LLC, priority 2017, dated 2021)

Key:
[1] = tested on: human follicle derma papilla cells (HFDP); assay: Cell proliferation assay in HFDP cells; format: cell-based; conditions: 0.5 ug/ml
Procedure: Adherent human cell lines were cultured according to standard mammalian tissue culture protocols and sterile technique. Human follicle derma papilla cells were cultured in human follicle dermal papilla cell growth medium, ready to use, low-serum. Keratinocyte cells (HaCaT) were cultured in high glucose Dulbecco's Modified Eagle Medium with 10% serum. Normal human […] cells such as HFF and BJ were culture in BIOAMF-2 complete medium (Biological industries). All media was supplemented with streptomycin ([…]), penicillin (100 U/ml) and Nystatin (12.5 U/ml). Cells were incubated in 5% CO2 at 37° C. All tissue culture were maintained in 25 cm^2 Nunc™ cell culture treated EasYFlask™ (Thermofisher scientific) and all the media and supplements were obtained from Biological Industries. Treatment were performed by plating cells in a Nunc™ 96 micro well delta surface plates (Thermofisher scientific) in a starting confluence of 0.5×10^4 cells/well. After 24 h of incubation the cells were treated with the ZM-26 composition.
Viability of the cells following treatment was determined using a commercially available MTT assay kit (ABCAM, ab146345) and performed according to manufacturer's instructions. […] The quantification was determined by measuring the optical density at 570 nm in an enzyme-linked immunosorbent assay (Spark, Tecan) reader. […]

DHT production = assay: ELISA for DHT detection in male HFDP cells; format: cell-based, human; conditions: 5 μM testosterone
Procedure: Dihydrotestosterone (DHT) detection was performed using the Aviva Systems Biology dihydrotestosterone ELISA kit (OKEH02531). The technique is based on a competitive binding enzyme immunoassay. 96 well plate has been pre-coated with an antibiotinylated dihydrotestosterone antibody. 50 μl of HFDP cells control and treated samples were added to the wells along with 50 μl of 1× dihydrotestosterone-Biotin complex. After incubation at 37° C. for 60 min wells were washed 3 times with 1× Wash buffer and was added to each well 100 μl of Avidin-HRP conjugate solution. Another step of incubation at 37° C. for 45 min and washing with 1× wash buffer was performed. 90 μl of TMB subtract was added and to each well followed by incubation in dark, 37° C. for 15-30 minutes. Finally, 50 μl of a stop solution was added and the quantification was determined by measuring the optical density at 450 nm in an enzyme-linked immunosorbent assay (Spark, Tecan) reader.

Row | SMILES | cell viability after 48 h treatment [1] | DHT levels increase (DHT production)
1 | Nc1cc(N2CCCCC2)nc(N)[n+]1[O-] [minoxidil] | caused cell death | –
2 | C[C@]12CC[C@H]3[C@@H](CCC4=CC(=O)CC[C@@]43C)[C@@H]1CC[C@@H]2O [testosterone] | – | 4.4 fold
